Results taken from a compilation of properties of binary mixtures (doi:10.1016/j.jct.2013.10.027).

Test: xn = mol fraction of the nth substance listed
Details: 101 kPa

CCCC[n+]1ccn(C)c1.O=S(=O)([N-]S(=O)(=O)C(F)(F)F)C(F)(F)F + OCC(F)(F)F
viscosity (278.15 K, x2 = 0): 143 mPa·s
viscosity (288.15 K, x2 = 0): 82.4 mPa·s
viscosity (293.15 K, x2 = 0): 64.6 mPa·s
viscosity (298.15 K, x2 = 0): 51.6 mPa·s
viscosity (303.15 K, x2 = 0): 41.9 mPa·s
viscosity (308.15 K, x2 = 0): 34.6 mPa·s
viscosity (313.15 K, x2 = 0): 28.9 mPa·s
viscosity (318.15 K, x2 = 0): 24.4 mPa·s
viscosity (323.15 K, x2 = 0): 20.9 mPa·s
viscosity (328.15 K, x2 = 0): 18 mPa·s
viscosity (333.15 K, x2 = 0): 15.7 mPa·s

OCC(F)(F)F + CCCC[n+]1ccn(C)c1.O=S(=O)([N-]S(=O)(=O)C(F)(F)F)C(F)(F)F
viscosity (278.15 K, x1 = 0.0877): 111.4 mPa·s
viscosity (278.15 K, x1 = 0.8748): 5.37 mPa·s
viscosity (278.15 K, x1 = 1): 3.28 mPa·s
viscosity (283.15 K, x1 = 0.0877): 84.8 mPa·s
viscosity (283.15 K, x1 = 0.2626): 51.2 mPa·s
viscosity (283.15 K, x1 = 0.4753): 24.63 mPa·s
viscosity (283.15 K, x1 = 0.6153): 14.14 mPa·s
viscosity (283.15 K, x1 = 0.7568): 7.74 mPa·s
viscosity (283.15 K, x1 = 0.8748): 4.62 mPa·s
viscosity (283.15 K, x1 = 1): 2.81 mPa·s
viscosity (288.15 K, x1 = 0.0877): 66 mPa·s
viscosity (288.15 K, x1 = 0.2626): 40.93 mPa·s
viscosity (288.15 K, x1 = 0.4753): 20.36 mPa·s
viscosity (288.15 K, x1 = 0.6153): 11.94 mPa·s
viscosity (288.15 K, x1 = 0.7568): 6.67 mPa·s
viscosity (288.15 K, x1 = 0.8748): 4.02 mPa·s
viscosity (288.15 K, x1 = 1): 2.42 mPa·s
viscosity (293.15 K, x1 = 0.0877): 52.3 mPa·s
viscosity (293.15 K, x1 = 0.2626): 33.18 mPa·s
viscosity (293.15 K, x1 = 0.4753): 17.03 mPa·s
viscosity (293.15 K, x1 = 0.7568): 5.8 mPa·s
viscosity (293.15 K, x1 = 0.8748): 3.53 mPa·s
viscosity (293.15 K, x1 = 1): 2.11 mPa·s
viscosity (298.15 K, x1 = 0.0877): 42.28 mPa·s
viscosity (298.15 K, x1 = 0.4753): 14.48 mPa·s
viscosity (298.15 K, x1 = 0.6153): 8.81 mPa·s
viscosity (298.15 K, x1 = 0.8748): 3.12 mPa·s
viscosity (298.15 K, x1 = 1): 1.84 mPa·s
viscosity (303.15 K, x1 = 0.0877): 34.67 mPa·s
viscosity (303.15 K, x1 = 0.2626): 22.96 mPa·s
viscosity (303.15 K, x1 = 0.4753): 12.43 mPa·s
viscosity (303.15 K, x1 = 0.6153): 7.68 mPa·s
viscosity (303.15 K, x1 = 0.7568): 4.45 mPa·s
viscosity (303.15 K, x1 = 0.8748): 2.78 mPa·s
viscosity (303.15 K, x1 = 1): 1.62 mPa·s
viscosity (308.15 K, x1 = 0.0877): 28.83 mPa·s
viscosity (308.15 K, x1 = 0.2626): 19.43 mPa·s
viscosity (308.15 K, x1 = 0.4753): 10.77 mPa·s
viscosity (308.15 K, x1 = 0.6153): 6.75 mPa·s
viscosity (308.15 K, x1 = 0.7568): 3.94 mPa·s
viscosity (308.15 K, x1 = 0.8748): 2.49 mPa·s
viscosity (308.15 K, x1 = 1): 1.43 mPa·s
viscosity (313.15 K, x1 = 0.0877): 24.27 mPa·s
viscosity (313.15 K, x1 = 0.2626): 16.63 mPa·s
viscosity (313.15 K, x1 = 0.6153): 5.99 mPa·s
viscosity (313.15 K, x1 = 0.7568): 3.53 mPa·s
viscosity (313.15 K, x1 = 0.8748): 2.25 mPa·s
viscosity (313.15 K, x1 = 1): 1.27 mPa·s
viscosity (318.15 K, x1 = 0.0877): 20.67 mPa·s
viscosity (318.15 K, x1 = 0.2626): 14.38 mPa·s
viscosity (318.15 K, x1 = 0.6153): 5.35 mPa·s
viscosity (318.15 K, x1 = 0.7568): 3.18 mPa·s
viscosity (318.15 K, x1 = 0.8748): 2.04 mPa·s
viscosity (318.15 K, x1 = 1): 1.13 mPa·s
viscosity (323.15 K, x1 = 0.0877): 17.78 mPa·s
viscosity (323.15 K, x1 = 0.2626): 12.54 mPa·s
viscosity (323.15 K, x1 = 0.4753): 7.38 mPa·s
viscosity (323.15 K, x1 = 0.6153): 4.81 mPa·s
viscosity (323.15 K, x1 = 0.7568): 2.88 mPa·s
viscosity (323.15 K, x1 = 0.8748): 1.85 mPa·s
viscosity (328.15 K, x1 = 0.0877): 15.43 mPa·s
viscosity (328.15 K, x1 = 0.2626): 11.03 mPa·s
viscosity (328.15 K, x1 = 0.4753): 6.6 mPa·s
viscosity (328.15 K, x1 = 0.6153): 4.34 mPa·s
viscosity (328.15 K, x1 = 0.7568): 2.62 mPa·s
viscosity (328.15 K, x1 = 0.8748): 1.69 mPa·s
viscosity (328.15 K, x1 = 1): 0.925 mPa·s
viscosity (333.15 K, x1 = 0.0877): 13.51 mPa·s
viscosity (333.15 K, x1 = 0.4753): 5.94 mPa·s
viscosity (333.15 K, x1 = 0.6153): 3.95 mPa·s
viscosity (333.15 K, x1 = 0.7568): 2.4 mPa·s
viscosity (333.15 K, x1 = 0.8748): 1.54 mPa·s
viscosity (333.15 K, x1 = 1): 0.824 mPa·s
